Assay results as given in patent publication US10806785B2, “Immunomodulator compounds and methods of use” (Incyte Corporation, priority 2016, dated 2020).

Biological target: PD-1/PD-L1 (Homo sapiens (Human), UniProt Q9NZQ7)
Assay: PD-1/PD-L1 binding assay (HTRF)
In short: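 HTRF read-out (665/620 nm) after 60 min at 25 °C with 1 nM Eu anti-human IgG and 20 nM APC anti-His. Beforehand, inhibitors were preincubated 40 min with Fc-PD-1 (25-167, […] as listed) and His-PD-L1 (19-238, 10 nM) in PBS pH 7.4 with Tween-20, BSA, 1% DMSO; IC50 from log-concentration curve.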

PD-1/PD-L1, sequence (Q9NZQ7 19-238): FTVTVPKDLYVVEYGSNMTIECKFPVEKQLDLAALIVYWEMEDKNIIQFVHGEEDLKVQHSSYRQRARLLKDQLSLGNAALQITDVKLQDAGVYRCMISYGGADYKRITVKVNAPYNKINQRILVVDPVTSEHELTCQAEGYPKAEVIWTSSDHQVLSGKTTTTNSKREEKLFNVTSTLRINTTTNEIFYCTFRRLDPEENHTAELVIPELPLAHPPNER

Row | IC50 [nM] | SMILES
1 | ≤ 10 | CCC1(C(=O)O)CCC(N2CCc3c(nc(C(=O)Nc4cccc(-c5cccc(NC(=O)c6nc7c(n6C)CCN(C)C7)c5Cl)c4C)n3C)C2)CC1 (centres unmarked) [Example 104, 4-(2-((2′-chloro-3′-(1,5-dimethyl-4,5,6,7-tetrahydro-1H-imidazo[4,5-c]pyridine-2-carboxamido)-2-methyl-[1,1′-biphenyl]-3-yl)carbamoyl)-1-methyl-1,4,6,7-tetrahydro-5H-imidazo[4,5-c]pyridin-5-yl)-1-ethylcyclohexane-1-carboxylic acid]
2 | ≤ 10 | CCN1CCc2c(nc(C(=O)Nc3cccc(-c4cccc(NC(=O)c5nc6c(n5C)CCN(C5CCC(C)(C(=O)O)CC5)C6)c4C)c3Cl)n2C)C1 (centres unmarked) [Example 105, 4-(2-((2′-chloro-3′-(5-ethyl-1-methyl-4,5,6,7-tetrahydro-1H-imidazo[4,5-c]pyridine-2-carboxamido)-2-methyl-[1,1′-biphenyl]-3-yl)carbamoyl)-1-methyl-1,4,6,7-tetrahydro-5H-imidazo[4,5-c]pyridin-5-yl)-1-methylcyclohexane-1-carboxylic acid]
3 | ≤ 10 | Cc1c(NC(=O)c2nc3c(n2C)CCN(C2CCC(C)(C(=O)O)CC2)C3)cccc1-c1cccc(NC(=O)c2nc3c(n2C)CCN(C(C)C)C3)c1Cl (centres unmarked) [Example 106, 4-(2-((2′-chloro-3′-(5-isopropyl-1-methyl-4,5,6,7-tetrahydro-1H-imidazo[4,5-c]pyridine-2-carboxamido)-2-methyl-[1,1′-biphenyl]-3-yl)carbamoyl)-1-methyl-1,4,6,7-tetrahydro-5H-imidazo[4,5-c]pyridin-5-yl)-1-methylcyclohexane-1-carboxylic acid]
4 | ≤ 10 | Cc1c(NC(=O)c2nc3c(n2C)CCN(C2CCC(C)(C(=O)O)CC2)C3)cccc1-c1cccc(NC(=O)c2nc3c(n2C)CCN(C2CCCCC2)C3)c1Cl (centres unmarked) [Example 107, 4-(2-((2′-chloro-3′-(5-cyclohcxyl-1-methyl-4,5,6,7-tetrahydro-1H-imidazo[4,5-c]pyridine-2-carboxamido)-2-methyl-[1,1′-biphenyl]-3-yl)carbamoyl)-1-methyl-1,4,6,7-tetrahydro-5H-imidazo[4,5-c]pyridin-5-yl)-1-methylcyclohexane-1-carboxylic acid]
5 | ≤ 10 | Cc1c(NC(=O)c2nc3c(n2C)CCN(C2CCC(C)(C(=O)O)CC2)C3)cccc1-c1cccc(NC(=O)c2nc3c(n2C)CCN(C2CCOCC2)C3)c1Cl (centres unmarked) [Example 108, 4-(2-((2′-chloro-2-methyl-3′-(1-methyl-5-(tetrahydro-2H-pyran-4-yl)-4,5,6,7-tetrahydro-1H-imidazo[4,5-c]pyridine-2-carboxamido)-[1,1′-biphenyl]-3-yl)carbamoyl)-1-methyl-1,4,6,7-tetrahydro-5H-imidazo[4,5-c]pyridin-5-yl)-1-methylcyclohexane-1-carboxylic acid]
6 | ≤ 10 | Cc1c(NC(=O)c2nc3c(n2C)CCN(CC[C@H]2CC[C@H](C(=O)O)CC2)C3)cccc1-c1cccc(NC(=O)c2nc3c(n2C)CCN(C2CCOCC2)C3)c1Cl [Example 109, trans-4-(2-(2-((2′-chloro-2-methyl-3′-(1-methyl-5-(tetrahydro-2H-pyran-4-yl)-4,5,6,7-tetrahydro-1H-imidazo[4,5-c]pyridine-2-carboxamido)-[1,1′-biphenyl]-3-yl)carbamoyl)-1-methyl-1,4,6,7-tetrahydro-5H-imidazo[4,5-c]pyridin-5-yl)ethyl)cyclohexane-1-carboxylic acid]
7 | ≤ 10 | Cc1c(NC(=O)c2nc3c(n2C)CCN(C[C@H]2CC[C@H](C(=O)O)CC2)C3)cccc1-c1cccc(NC(=O)c2nc3c(n2C)CCN(C2CCOCC2)C3)c1Cl [Example 110, trans-4-((2-((2′-chloro-2-methyl-3′-(1-methyl-5-(tetrahydro-2H-pyran-4-yl)-4,5,6,7-tetrahydro-1H-imidazo[4,5-c]pyridine-2-carboxamido)-[1,1′-biphenyl]-3-yl)carbamoyl)-1-methyl-1,4,6,7-tetrahydro-5H-imidazo[4,5-c]pyridin-5-yl)methyl)cyclohexane-1-carboxylic acid]
8 | ≤ 10 | Cc1c(NC(=O)c2nc3c(n2C)CCN(C2CCC(C(=O)O)CC2)C3)cccc1-c1cccc(NC(=O)c2nc3c(n2C)CCN(C2CCOCC2)C3)c1Cl (centres unmarked) [Example 111, 4-(2-((2′-chloro-2-methyl-3′-(1-methyl-5-(tetrahydro-2H-pyran-4-yl)-4,5,6,7-tetrahydro-1H-imidazo[4,5-c]pyridine-2-carboxamido)-[1,1′-biphenyl]-3-yl)carbamoyl)-1-methyl-1,4,6,7-tetrahydro-5H-imidazo[4,5-c]pyridin-5-yl)cyclohexane-1-carboxylic acid]
9 | ≤ 10 | CCC1(C(=O)O)CCC(N2CCc3c(nc(C(=O)Nc4cccc(-c5cccc(NC(=O)c6nc7c(n6C)CCN(C6CCOCC6)C7)c5Cl)c4C)n3C)C2)CC1 (centres unmarked) [Example 112, 4-(2-((2′-chloro-2-methyl-3′-(1-methyl-5-(tetrahydro-2H-pyran-4-yl)-4,5,6,7-tetrahydro-1H-imidazo[4,5-c]pyridine-2-carboxamido)-[1,1′-biphenyl]-3-yl)carbamoyl)-1-methyl-1,4,6,7-tetrahydro-5H-imidazo[4,5-c]pyridin-5-yl)-1-ethylcyclohexane-1-carboxylic acid]
10 | ≤ 10 | Cc1c(NC(=O)c2nc3c(n2C)CCN(C[C@H]2CC[C@@H](C(=O)O)CC2)C3)cccc1-c1cccc(NC(=O)c2nc3c(n2C)CCNC3)c1Cl [Example 113, cis-4-((2-((2′-chloro-2-methyl-3′-(1-methyl-4,5,6,7-tetrahydro-1H-imidazo[4,5-c]pyridine-2-carboxamido)-[1,1′-biphenyl]-3-yl)carbamoyl)-1-methyl-1,4,6,7-tetrahydro-5H-imidazo[4,5-c]pyridin-5-yl)methyl)cyclohexane-1-carboxylic acid]
11 | ≤ 10 | Cc1c(NC(=O)c2nc3c(n2C)CCN(C)C3)cccc1-c1cccc(NC(=O)c2nc3c(n2C)CCN(CC[C@H]2CC[C@H](C(=O)O)CC2)C3)c1Cl [Example 115, trans-4-(2-(2-((2-chloro-3′-(1,5-dimethyl-4,5,6,7-tetrahydro-1H-imidazo[4,5-c]pyridine-2-carboxamido)-2′-methyl-[1,1′-biphenyl]-3-yl)carbamoyl)-1-methyl-1,4,6,7-tetrahydro-5H-imidazo[4,5-c]pyridin-5-yl)ethyl)cyclohexane-1-carboxylic acid]
12 | ≤ 10 | Cc1c(NC(=O)c2nc3c(n2C)CCN(C)C3)cccc1-c1cccc(NC(=O)c2nc3c(n2C)CCN(C[C@H]2CC[C@H](C(=O)O)CC2)C3)c1Cl [Example 116, trans-4-((2-((2-chloro-3′-(1,5-dimethyl-4,5,6,7-tetrahydro-1H-imidazo[4,5-c]pyridine-2-carboxamido)-2′-methyl-[1,1′-biphenyl]-3-yl)carbamoyl)-1-methyl-1,4,6,7-tetrahydro-5H-imidazo[4,5-c]pyridin-5-yl)methyl)cyclohexane-1-carboxylic acid]
13 | ≤ 10 | Cc1c(NC(=O)c2nc3c(n2C)CCN(C)C3)cccc1-c1cccc(NC(=O)c2nc3c(n2C)CCN(CCc2ccc(C(=O)O)cc2)C3)c1Cl [Example 117, 4-(2-(2-((2-chloro-3′-(1,5-dimethyl-4,5,6,7-tetrahydro-1H-imidazo[4,5-c]pyridine-2-carboxamido)-2′-methyl-[1,1′-biphenyl]-3-yl)carbamoyl)-1-methyl-1,4,6,7-tetrahydro-5H-imidazo[4,5-c]pyridin-5-yl)ethyl)benzoic acid]
14 | ≤ 10 | Cc1c(NC(=O)c2nc3c(n2C)CCN(C)C3)cccc1-c1cccc(NC(=O)c2nc3c(n2C)CCN(C2CCC(C)(C(=O)O)CC2)C3)c1Cl (centres unmarked) [Example 118, 4-(2-((2-chloro-3′-(1,5-dimethyl-4,5,6,7-tetrahydro-1H-imidazo[4,5-c]pyridine-2-carboxamido)-2′-methyl-[1,1′-biphenyl]-3-yl)carbamoyl)-1-methyl-1,4,6,7-tetrahydro-5H-imidazo[4,5-c]pyridin-5-yl)-1-methylcyclohexane-1-carboxylic acid]
15 | ≤ 10 | Cc1c(NC(=O)c2nc3c(n2C)CCN(C)C3)cccc1-c1cccc(NC(=O)c2nc3c(n2C)CCN(CC24CCC(C(=O)O)(CC2)C4)C3)c1Cl [Example 119, 4-((2-((2-chloro-3′-(1,5-dimethyl-4,5,6,7-tetrahydro-1H-imidazo[4,5-c]pyridine-2-carboxamido)-2′-methyl-[1,1′-biphenyl]-3-yl)carbamoyl)-1-methyl-1,4,6,7-tetrahydro-5H-imidazo[4,5-c]pyridin-5-yl)methyl)bicyclo[2.2.1]heptane-1-carboxylic acid]
16 | ≤ 10 | CCC1(C(=O)O)CCC(N2CCc3c(nc(C(=O)Nc4cccc(-c5cccc(NC(=O)c6nc7c(n6C)CCN(C)C7)c5C)c4Cl)n3C)C2)CC1 (centres unmarked) [Example 121, 4-(2-((2-chloro-3′-(1,5-dimethyl-4,5,6,7-tetrahydro-1H-imidazo[4,5-c]pyridine-2-carboxamido)-2′-methyl-[1,1′-biphenyl]-3-yl)carbamoyl)-1-methyl-1,4,6,7-tetrahydro-5H-imidazo[4,5-c]pyridin-5-yl)-1-ethylcyclohexane-1-carboxylic acid]
17 | ≤ 10 | Cc1c(NC(=O)c2nc3c(n2C)CCN(C2CCOCC2)C3)cccc1-c1cccc(NC(=O)c2nc3c(n2C)CCN(CC[C@H]2CC[C@H](C(=O)O)CC2)C3)c1Cl [Example 122, trans-4-(2-(2-((2-chloro-2′-methyl-3′-(1-methyl-5-(tetrahydro-2H-pyran-4-yl)-4,5,6,7-tetrahydro-1H-imidazo[4,5-c]pyridine-2-carboxamido)-[1,1′-biphenyl]-3-yl)carbamoyl)-1-methyl-1,4,6,7-tetrahydro-5H-imidazo[4,5-c]pyridin-5-yl)ethyl)cyclohexane-1-carboxylic acid]
